Laboratory results: ChEMBL document CHEMBL1150679, “Genipatriol, a new cycloartane triterpene from Genipa spruceana” (J Nat Prod, 2003)
Calls of active or inactive are those of the source. The calls are words filed in the database; no cut-off is given here.

System: Nakaseomyces glabratus
Experiment: Antimicrobial activity against Candida glabrata assessed as reversal of azole resistance after 24 to 48 hrs
Assay type: functional, organism-based

Compound	Activity
C/C(=C/CC[C@@H](C)[C@H]1CC[C@@]2(C)[C@@H]3CC[C@H]4C(C)(C)[C@@H](O)[C@H](O)C[C@@]45C[C@@]35CC[C@]12C)CO	inactive
C[C@H]1[C@H](C)CC[C@]2(C(=O)O)CC[C@]3(C)C(=CC[C@@H]4[C@@]5(C)CC[C@H](O)C(C)(C)[C@@H]5CC[C@]43C)[C@H]12	inactive
